Measurements: publication PMC5161434 (EBioMedicine, 2016)

Columns and labels:
OVCAR3 cells [1] = assay: PI staining cell-cycle distribution, OVCAR3; assay type: cell-based, human; conditions: 24 h
OVCAR3 cells [2] = assay: Western blotting of apoptosis, cell cycle and EMT proteins, OVCAR3; assay type: cell-based, human; conditions: 24 h; for cleavage of caspase 3 and PARP: ARS4 1, 5, 10 μM, DHA or melphalan 10 μM
A2780 cells [3] = assay: PI staining cell-cycle distribution, A2780; assay type: cell-based, human; conditions: 24 h
A2780 cells [4] = assay: Western blotting of apoptosis, cell cycle and EMT proteins, A2780; assay type: cell-based, human; conditions: 24 h; for cleavage of caspase 3 and PARP: ARS4 1, 5, 10 μM, DHA or melphalan 10 μM
A2780 = assay: CCK-8 cell viability, A2780 ovarian cancer cells; assay type: cell-based, human; conditions: for IC50: Homo sapiens, A2780, 48 h, read-out: IC50 (cell growth inhibition), A2780
OVCAR3 = assay: CCK-8 cell viability, OVCAR3 ovarian cancer cells; assay type: cell-based, human; conditions: for IC50: Homo sapiens, OVCAR-3, 48 h, read-out: IC50 (cell growth inhibition), OVCAR-3
[5] = Host toxicity in tumor-bearing mice; assay type: in vivo, BALB/c nude mice; conditions: 25 mg/kg daily, end of experiment; for organ weights (liver, kidneys, spleen, lung): versus vehicle

SMILES	effect on cell-cycle progression (OVCAR3 cells [1])	cleavage of caspase 3 and PARP (OVCAR3 cells [2])	effect on cell-cycle progression (A2780 cells [3])	cleavage of caspase 3 and PARP (A2780 cells [4])	growth of cells after 12 h of exposure (CCK8) (A2780; A2780, 12 h, data not shown)	IC50 (A2780) [µM]	IC50 (OVCAR3) [µM]	growth of cells after 12 h of exposure (CCK8) (OVCAR3; OVCAR3, 12 h, data not shown)	organ weights (liver, kidneys, spleen, lung) [5]	histological findings (H&E; liver, kidneys, spleen, lung) [5]	EMT phenotype (E-cadherin, Vimentin, Snail, Slug expression) (OVCAR3 cells [2])	EMT phenotype (E-cadherin, Vimentin, Snail, Slug expression) (A2780 cells [4])
C[C@H]1[C@@H](O)O[C@@H]2O[C@@]3(C)CC[C@H]4[C@H](C)CC[C@@H]1[C@@]24OO3 [Compound 1, Dihydroartemisinin]	modest arrest in the G0/G1 phase	less effect	modest arrest in the G0/G1 phase	less effect	no apparent inhibition of growth	4.75	5.65	no apparent inhibition of growth				
N.N.O=C([O-])C1(C(=O)[O-])CCC1.[Pt+2] [Carboplatin]									loss			
N[C@@H](Cc1ccc(N(CCCl)CCCl)cc1)C(=O)O [Compound 3, melphalan]	arrested cells in the S phase	less effect	arrested cells in the S phase	less effect		23.2	11.6		Severe decreases in organ weight	substantial necrosis of liver and spleen parenchymal cells	no obvious effect	no obvious effect
